# From paper PMC10243163, “A frog‐derived antimicrobial peptide as a potential anti‐biofilm agent in combating Staphylococcus aureus skin infection” (Journal of Cellular and Molecular Medicine, 2023)
# Where two headings read alike, the source gives them in different places. Positions of bridges follow the written chain, without caps; N, C: chain ends. Residues, ends and D or L forms follow the SMILES beside them. No end group written: not given here.
# Key:
# [1] = system: S. aureus ATCC 6538; type: cell-based, Staphylococcus aureus
# Protocol: (§1) Antimicrobial assays were conducted using standard broth micro‐dilutions, as mentioned previously.[11] Gram‐positive bacteria S. aureus (ATCC 6538), Methicillin‐resistant S. aureus (MRSA; NCTC 12493), […] (NCTC 12697), Gram‐negative bacteria Escherichia coli (ATCC 8739), Klebsiella pneumoniae (ATCC 43816), Pseudomonas aeruginosa (ATCC 9027), Acinetobacter baumannii (ATCC BAA 747), and yeast, Candida albicans (ATCC 10231) were used in the test. The experiments were conducted in three independent runs.
# [2] = system: MRSA NCTC 12493; type: cell-based, Methicillin‐resistant S. aureus
# Protocol: as §1
# [3] = system: E. faecalis NCTC 12697; type: cell-based
# [4] = system: E. coli ATCC 8739; type: cell-based, Escherichia coli
# Protocol: as §1
# [5] = system: K. pneumoniae ATCC 43816; type: cell-based, Klebsiella pneumoniae
# Protocol: as §1
# [6] = system: P. aeruginosa ATCC 9027; type: cell-based, Pseudomonas aeruginosa
# Protocol: as §1
# [7] = system: C. albicans ATCC 10231; type: cell-based, Candida albicans
# Protocol: as §1
# [8] = system: Gram‐positive and Gram‐negative test bacteria; type: cell-based
# Protocol: as §1
# [9] = system: MRSA NCTC 12493; assay: Ex vivo porcine skin infection model; parameters: species or system Methicillin‐resistant S. aureus; conditions: vancomycin 8 μM, 4 h
# Protocol: The antibacterial efficacy of OG9 and OG9c‐De‐NH2 was further evaluated in an ex vivo porcine skin model, as reported.[27] The porcine skin was shaved and cleaned with 70% ethanol and dd H2O. The polyethylene tubing was glued to the cleaned skin surface with cyanoacrylate glue. Exponential or persister cells were inoculated to infect each skin sample. After 15 min of incubation at 37°C, each skin sample was treated with peptides at concentrations of 1 × or 10 × MIC or vancomycin (8 μM). After another 4 h of incubation, each tubing well was washed with PBS. Ten microliters of the mixture in each well was diluted with PBS buffer and spotted on the agar plate. The number of viable bacteria cells was counted after overnight incubation. The experiments were conducted in three independent runs.
# [10] = system: S. aureus ATCC 6538; type: cell-based, Staphylococcus aureus; conditions: ATCC 6538, 24 h
# Protocol: (§2) Peptide solutions were first mixed with bacterial cultures (5 × 10^5 CFU/mL) and incubated at 37°C for 24 h. The planktonic bacterial cells were gently removed by washing with PBS the next day, and methanol was utilised to fix the biofilm. Crystal violet (0.1% v/v), PBS and acetic acid (30%, v/v) were subsequently used to stain biofilm, remove remaining stains and re‐dissolve stains, respectively. The absorbance was determined at 595 nm. The experiments were conducted in three independent runs.
# [11] = system: MRSA NCTC 12493; type: cell-based, Methicillin‐resistant S. aureus; conditions: NCTC 12493, 24 h
# Protocol: as §2
# [12] = system: E. faecalis NCTC 12697; type: cell-based; conditions: NCTC 12697, 24 h
# Protocol: as §2
# [13] = system: E. coli ATCC 8739; type: cell-based, Escherichia coli; conditions: ATCC 8739, 24 h
# Protocol: as §2
# [14] = system: P. aeruginosa ATCC 9027; type: cell-based, Pseudomonas aeruginosa; conditions: ATCC 9027, 24 h
# Protocol: as §2
# [15] = system: Gram‐positive and Gram‐negative test bacteria; type: cell-based; conditions: geometric mean of MICs against the three Gram‐negative strains
# [16] = system: horse erythrocytes; assay: Haemolytic activity; type: cell-based; conditions: 128 μM peptide; horse erythrocytes 2% v/v, 37°C, 2 h; 0.1% Triton X‐100 positive control; absorbance 570 nm; three independent runs
# Protocol: The haemolytic activity of peptides was conducted using horse erythrocytes (2%, v/v). Peptide solutions were mixed with washed horse erythrocyte suspension at 37°C for 2 h. Triton X‐100 (0.1%) was used as a positive control. The mixture was then centrifuged at 930 g for 5 min. The absorbance of the supernatants was detected at 570 nm. The haemolysis rate was calculated using the formula: Haemolysis%=Sample group−negative group/positive group−negative group×100%.
# This experiment was performed in three independent runs.
# [17] = geometric mean of MICs against all test bacteria
# [18] = geometric mean of MICs against the three Gram‐positive strains
Molecule,MBC [1],MIC [1] [µM],MBC [2] [µM],MIC [2] [µM],MBC [3] [µM],MIC [3] [µM],MBC [4] [µM],MIC [4] [µM],MBC [5] [µM],MIC [5] [µM],MBC [6] [µM],MIC [6] [µM],MBC [7] [µM],MIC [7] [µM],"GM MIC, total bacteria [8, 17] [µM]","GM MIC, G+ [8, 18] [µM]","GM MIC, G− [15] [µM]",Haemolysis [16],other results
FPLIARLAAKFLPKIL [OG9c‐De],16 µM,16,16,16,64,64,16,16,32,32,64,16,16,16,,,,,"GM MIC, G+ [8]: 25.4 µM; GM MIC, G− [8]: 20.2 µM; GM MIC, total bacteria [8]: 22.6 µM"
CN[C@H](CC(C)C)C(=O)N[C@H]1C(=O)N[C@@H](CC(N)=O)C(=O)N[C@H]2C(=O)N[C@H]3C(=O)N[C@H](C(=O)N[C@H](C(=O)O)c4cc(O)cc(O)c4-c4cc3ccc4O)[C@H](O)c3ccc(c(Cl)c3)Oc3cc2cc(c3O[C@@H]2O[C@H](CO)[C@@H](O)[C@H](O)[C@H]2O[C@H]2C[C@](C)(N)[C@H](O)[C@H](C)O2)Oc2ccc(cc2Cl)[C@H]1O [Vancomycin],,,,,,,,,,,,,,,,,,,Ex vivo effect on exponential MRSA cells [9]: weak inhibiting effect
FPLIARLAAKFLPKIL-NH2 [OG9c‐De‐NH2],2/2 μM,,2,2,8,8,2,2,4,4,8,8,16,16,3.6,3.2,4,,MBIC [10]: 1 µM; MBIC [11]: 1 µM; MBIC [12]: 16 µM; MBIC [13]: 16 µM; MBIC [14]: 64 µM
FPLIAGLAANFLPKIL-NH2 [OG9‐De‐NH2],> 128 µM,> 128,> 128,> 128,> 128,> 128,> 128,> 128,> 128,> 128,> 128,> 128,> 128,> 128,,,,no apparent haemolysis,
FPLIAGLAANFLPKIL [OG9‐De],> 128 µM,> 128,> 128,> 128,> 128,> 128,> 128,> 128,> 128,> 128,> 128,> 128,> 128,> 128,,,,no apparent haemolysis,
CC[C@H](C)[C@@H]1NC(=O)[C@H](C)NC(=O)[C@@H](NC(=O)[C@H](CC(C)C)NC(=O)[C@@H](NC(=O)[C@H](CCCCN)NC(=O)[C@@H]2CCCN2C(=O)[C@H](CC(C)C)NC(=O)[C@H](Cc2ccccc2)NC(=O)[C@H](CC(N)=O)NC(=O)[C@H](C)NC(=O)[C@H](CCCCN)NC(=O)[C@H](CC(C)C)NC(=O)CNC(=O)[C@H](C)NC(=O)[C@@H](NC(=O)[C@H](CC(C)C)NC(=O)[C@@H]2CCCN2C(=O)[C@@H](N)Cc2ccccc2)[C@@H](C)CC)[C@@H](C)CC)CSSC[C@@H](C(=O)O)NC(=O)[C@H](CCCCN)NC(=O)[C@H](CCCNC(=N)N)NC(=O)[C@H](C)NC1=O [OG9b] (H-FPLIAGLKANFLPKILCAIARKC-OH; disulfide 17-23),128 µM,64,> 128,> 128,> 128,> 128,8,8,16,16,64,32,> 128,> 128,50.8,161.3,16,50%,
CC[C@H](C)[C@@H]1NC(=O)[C@H](C)NC(=O)[C@@H](NC(=O)[C@H](CC(C)C)NC(=O)[C@@H](NC(=O)[C@H](CCCCN)NC(=O)[C@@H]2CCCN2C(=O)[C@H](CC(C)C)NC(=O)[C@H](Cc2ccccc2)NC(=O)[C@H](CC(N)=O)NC(=O)[C@H](C)NC(=O)[C@H](C)NC(=O)[C@H](CC(C)C)NC(=O)CNC(=O)[C@H](C)NC(=O)[C@@H](NC(=O)[C@H](CC(C)C)NC(=O)[C@@H]2CCCN2C(=O)[C@@H](N)Cc2ccccc2)[C@@H](C)CC)[C@@H](C)CC)CSSC[C@@H](C(=O)O)NC(=O)[C@H](CCCCN)NC(=O)[C@H](CCCNC(=N)N)NC(=O)[C@H](C)NC1=O [OG9a] (H-FPLIAGLAANFLPKILCAIARKC-OH; disulfide 17-23),8 µM,4,16,16,16,16,8,8,16,16,> 128,> 128,> 128,> 128,20.2,10.1,40.3,90%,
CC[C@H](C)[C@@H]1NC(=O)CNC(=O)[C@@H](NC(=O)[C@H](CC(C)C)NC(=O)[C@@H](NC(=O)[C@H](CCCCN)NC(=O)[C@@H]2CCCN2C(=O)[C@H](CC(C)C)NC(=O)[C@H](Cc2ccccc2)NC(=O)[C@H](CCCCN)NC(=O)[C@H](C)NC(=O)[C@H](C)NC(=O)[C@H](CC(C)C)NC(=O)[C@H](CCCNC(=N)N)NC(=O)[C@H](C)NC(=O)[C@@H](NC(=O)[C@H](CC(C)C)NC(=O)[C@@H]2CCCN2C(=O)[C@@H](N)Cc2ccccc2)[C@@H](C)CC)[C@@H](C)CC)CSSC[C@@H](C(=O)O)NC(=O)[C@H](CCCCN)NC(=O)[C@H](CC(N)=O)NC(=O)[C@H](C)NC1=O [OG9c] (H-FPLIARLAAKFLPKILCGIANKC-OH; disulfide 17-23),4 µM,4,8,8,16,16,4,4,8,8,16,16,64,64,,,,,"GM MIC, G+ [8]: 8/8/8 μM; GM MIC, G− [8]: 8/8/8 μM; GM MIC, total bacteria [8]: 8/8/8 μM"
